Some test systems named below: SK-MEL-2; Malme-3M; HCT-15; HOP-62; UO-31; A498; IGROV-1; HT-29; SK-OV-3; COLO 205; ACHN; A549; SW-620; SK-MEL-28; HCC 2998; HL-60; SNB-19.
Common to all, as to assay: NCI-60 cell line screen, 48 h

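Briefly, cells in 96-well plates were exposed to five compound concentrations for 48 h, and endpoints were estimated by linear interpolation. GI50 is the concentration that inhibits growth by half.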 Activity calls are given as the source filed them. Cut-off read from the data, not from the text of the source: active = GI50 up to about 1.1 µM and inactive = higher. Starred links: 1 amine or outer side, 2 acyl side, 3 side chain; linkers in the order of their positions; H or OH if unused. Non-standard residues stand in square brackets, D forms with d. Residues, ends and D or L forms follow the SMILES beside them. ξ: configuration not given here. Ile(3ξ) = CCC(C)[C@H](N)C(=O)O; X35 = C=CCC(O[*:1])C(=O)[*:2]; NMeV = CN[C@H](C(=O)O)C(C)C; NMeA = CN[C@@H](C)C(=O)O; βAla = NCCC(=O)O

For the molecule `C=CCC1OC(=O)CCNC(=O)[C@H](C)N(C)C(=O)[C@H](C(C)C)N(C)C(=O)[C@H](C(C)CC)NC(=O)[C@@H]2CCCN2C1=O` (stereo not given in full) (cyclo([Ile(3ξ)][NMeV][NMeA][βAla][X35]P)), the GI50 with SK-MEL-2 was 3.13 µM (inactive); with Malme-3M, 3.28 µM (inactive); with HCT-15 it was 23 µM; in the test on HOP-62 it was 4.09 µM (inactive); in the test on UO-31, 33 µM (inactive); in the test on A498, > 71.6 µM (inactive). Moreover, the GI50 is 33.6 µM (inactive) in the test on IGROV-1; 2.99 µM (inactive) in the test with HT-29; 99.1 µM (inactive) in the test on SK-OV-3; 5.14 µM (inactive) in the test on COLO 205; 27.9 µM (inactive) in the test with ACHN; 9.08 µM (inactive) in the test with A549. Further, the GI50 is 5.07 µM (inactive) in the test with SW-620; 33.8 µM (inactive) in the test on SK-MEL-28; 5.31 µM (inactive) in the test on HCC 2998; 3.39 µM (inactive) with HL-60; > 39.4 µM (inactive) in the test on SNB-19.
For the molecule `CS(=O)(=O)Sc1ccc(Cl)cc1`, the GI50 is 6.84 µM (inactive) in the test on SK-MEL-2; 11.6 µM (inactive) in the test with Malme-3M; 10.1 µM in the test with HCT-15; 2.83 µM (inactive) in the test with HOP-62; 3.29 µM (inactive) with UO-31; 2.38 µM (inactive) with A498. The GI50 in the test on IGROV-1 is 2.85 µM (inactive); in the test on HT-29, 9.75 µM (inactive); with SK-OV-3, 23.5 µM (inactive); in the test with COLO 205, 3.52 µM (inactive); in the test on A549, 3.75 µM (inactive); with SW-620, 12.7 µM (inactive). Further, the GI50 with SK-MEL-28 was 11.5 µM (inactive); in the test with HCC 2998, 11.2 µM (inactive); in the test with HL-60, 4.42 µM (inactive); with SNB-19 it was 3.4 µM (inactive).
In the case of `O=C(CCCCCCCCC(=O)OCCCn1cc(C(=O)NC(=O)OCc2ccccc2)c(=O)[nH]c1=O)OCCCn1cc(C(=O)NC(=O)OCc2ccccc2)c(=O)[nH]c1=O`, the GI50 is > 100 µM (inactive) with SK-MEL-2; > 100 µM (inactive) in the test on Malme-3M; greater than 100 µM in the test with HCT-15; > 100 µM (inactive) in the test on HOP-62; > 100 µM (inactive) in the test with UO-31; > 100 µM (inactive) in the test on A498. For the same molecule, the GI50 with IGROV-1, in the test on HT-29, with SK-OV-3, in the test on COLO 205, in the test with ACHN and in the test on A549 was > 100 µM (inactive) each time. Further, the GI50 in the test with SW-620, in the test on SK-MEL-28, in the test on HCC 2998, with HL-60 and in the test on SNB-19 was > 100 µM (inactive) in each case.
Regarding `COc1ccc(O)c2c1C(=O)CCCC2=O`, the GI50 was > 100 µM (inactive) in the test with SK-MEL-2; > 100 µM (inactive) with Malme-3M; greater than 100 µM in the test on HCT-15; > 100 µM (inactive) with HOP-62; > 100 µM (inactive) in the test with UO-31; > 100 µM (inactive) in the test with A498. Further, the GI50 in the test on IGROV-1, with HT-29, with SK-OV-3, in the test on COLO 205, in the test on ACHN and in the test on A549 was > 100 µM (inactive) throughout. The GI50 with SW-620, in the test on SK-MEL-28, with HCC 2998, in the test with HL-60 and with SNB-19 was > 100 µM (inactive) in each case.
Regarding `Nc1nc(Cl)c2ncn(CCCC(c3ccccc3)P(=O)(O)O)c2n1` (stereo not given), the GI50 in the test with SK-MEL-2 is > 100 µM (inactive); in the test on Malme-3M it was > 100 µM (inactive); in the test with HCT-15 it was greater than 100 µM; in the test on HOP-62 it was > 100 µM (inactive); in the test with UO-31, > 100 µM (inactive); in the test on A498, > 100 µM (inactive). Further, the GI50 in the test on IGROV-1, with HT-29, with SK-OV-3, in the test with COLO 205, in the test on ACHN and in the test with A549 was > 100 µM (inactive) in each case. The GI50 in the test on SW-620, in the test on SK-MEL-28, in the test with HCC 2998, in the test with HL-60 and with SNB-19 was > 100 µM (inactive) in each case.
As for `O=C1[C@H]2ON(c3ccccc3)C(c3cccc([N+](=O)[O-])c3)[C@H]2C(=O)N1c1ccc(Cc2ccc(N3C(=O)[C@@H]4ON(c5ccccc5)C(c5cccc([N+](=O)[O-])c5)[C@@H]4C3=O)cc2)cc1` (stereo not given in full), the GI50 with SK-MEL-2 was > 100 µM (inactive); with Malme-3M, 75 µM (inactive); in the test with HCT-15, greater than 100 µM; in the test with HOP-62, > 100 µM (inactive); in the test on UO-31 it was > 100 µM (inactive); in the test on A498, 36.5 µM (inactive). Also, the GI50 is > 100 µM (inactive) with IGROV-1; > 100 µM (inactive) in the test with HT-29; > 100 µM (inactive) with SK-OV-3; 42.3 µM (inactive) in the test on COLO 205; > 100 µM (inactive) in the test with ACHN; > 100 µM (inactive) in the test with A549. For the same molecule, the GI50 in the test on SW-620, with SK-MEL-28, in the test with HCC 2998, in the test on HL-60 and in the test on SNB-19 was > 100 µM (inactive) each time.
Consider `COCN/C(N)=N/C#N`, for which the GI50 with SK-MEL-2 is > 100 µM (inactive); with Malme-3M it was > 100 µM (inactive); in the test with HCT-15, 15.7 µM; with HOP-62 it was > 100 µM (inactive); with UO-31, > 100 µM (inactive); with A498 it was > 100 µM (inactive). Also, the GI50 in the test on IGROV-1 is > 100 µM (inactive); in the test with HT-29, > 100 µM (inactive); with SK-OV-3, > 100 µM (inactive); with COLO 205, 21.7 µM (inactive); in the test on ACHN, > 100 µM (inactive); in the test with A549 it was > 100 µM (inactive). For the same molecule, the GI50 was 15.7 µM (inactive) with SW-620; > 100 µM (inactive) with SK-MEL-28; > 100 µM (inactive) with HCC 2998; > 100 µM (inactive) in the test on HL-60; > 100 µM (inactive) with SNB-19.
`Cc1ccc(NC(=O)C(=O)CC(=O)c2c(C)[n+]([O-])c3ccccc3[n+]2[O-])cc1`: the GI50 in the test on SK-MEL-2 is 21 µM (inactive); with Malme-3M, 27.9 µM (inactive); with HCT-15 it was 31.8 µM; with HOP-62, > 100 µM (inactive); with UO-31, > 100 µM (inactive); with A498 it was > 100 µM (inactive). In addition, the GI50 in the test with IGROV-1 was 22 µM (inactive); with HT-29, 33.6 µM (inactive); in the test on SK-OV-3, 73.1 µM (inactive); in the test on COLO 205, 23.9 µM (inactive); with ACHN, 26.2 µM (inactive); with A549 it was 31 µM (inactive). Also, the GI50 was 33.7 µM (inactive) in the test with SW-620; 46.6 µM (inactive) in the test with SK-MEL-28; 44 µM (inactive) in the test with HCC 2998; 19.3 µM (inactive) in the test on HL-60; 54.1 µM (inactive) in the test on SNB-19.
`C/C(=N\NC(=O)CC#N)c1c(O)cc(C)oc1=O`: the GI50 is > 100 µM (inactive) with SK-MEL-2; > 100 µM (inactive) with Malme-3M; greater than 100 µM in the test with HCT-15; > 100 µM (inactive) in the test with HOP-62; > 100 µM (inactive) in the test on UO-31; > 100 µM (inactive) with A498. The GI50 in the test with IGROV-1, in the test on HT-29, in the test with SK-OV-3, with ACHN, in the test on A549 and in the test on SW-620 was > 100 µM (inactive) in each case. Besides, the GI50 in the test on SK-MEL-28, in the test with HCC 2998, with HL-60 and in the test with SNB-19 was > 100 µM (inactive) in each case.
In the case of `CC(C)S(=O)(=O)n1c(N)nc2ccc(/C(=N/O)c3ccccc3)cc21` [ENVIROXIME], the GI50 is 20.9 µM (inactive) in the test on SK-MEL-2; 45.4 µM (inactive) with Malme-3M; 23.4 µM in the test with HCT-15; 13.9 µM (inactive) in the test with HOP-62; 17.3 µM (inactive) with UO-31; 8.32 µM (inactive) with A498. Also, the GI50 in the test with IGROV-1 was 19 µM (inactive); in the test on HT-29 it was 16.9 µM (inactive); with SK-OV-3, 22.4 µM (inactive); in the test with COLO 205 it was 17.5 µM (inactive); in the test with ACHN it was 13.7 µM (inactive); in the test on A549, 14.2 µM (inactive). Moreover, the GI50 was 21.8 µM (inactive) in the test on SW-620; 36.1 µM (inactive) in the test on SK-MEL-28; 22 µM (inactive) in the test with HCC 2998; 12.2 µM (inactive) in the test with HL-60; 30 µM (inactive) with SNB-19.
For `CCCCC[C@@H]1CCCC2NC(CCCCCO[Si](c3ccccc3)(c3ccccc3)C(C)(C)C)CCC21` (stereo not given in full), the GI50 in the test on SK-MEL-2 is 15.1 µM (inactive); in the test on Malme-3M it was 19.1 µM (inactive); with HCT-15, 11.7 µM; in the test on HOP-62 it was 17.9 µM (inactive); in the test on UO-31, 13.4 µM (inactive); with A498 it was 17.3 µM (inactive). In addition, the GI50 in the test with IGROV-1 was 16.9 µM (inactive); in the test with HT-29, 4.28 µM (inactive); in the test with SK-OV-3 it was 21.8 µM (inactive); in the test on ACHN it was 13.5 µM (inactive); with A549, 17.5 µM (inactive); in the test on SW-620, 14.6 µM (inactive). The GI50 with SK-MEL-28 is 17.1 µM (inactive); in the test with HCC 2998, 11.2 µM (inactive); in the test on HL-60 it was 8.71 µM (inactive); in the test on SNB-19, 17.3 µM (inactive).
On to `C/C(=N\NS(=O)(=O)c1ccc(C)cc1)C(CN1CCCCC1)C(c1ccccc1)c1c(O)c2ccccc2oc1=O` (stereo not given), for which the GI50 is > 100 µM (inactive) with SK-MEL-2; > 100 µM (inactive) with Malme-3M; greater than 100 µM with HCT-15; > 100 µM (inactive) with HOP-62; > 100 µM (inactive) in the test on UO-31; > 100 µM (inactive) in the test with A498. The GI50 with IGROV-1, with HT-29, in the test on SK-OV-3, in the test on COLO 205, in the test on ACHN and in the test on A549 was > 100 µM (inactive) each time. For the same molecule, the GI50 in the test with SW-620 was 70.6 µM (inactive); in the test with HCC 2998, > 100 µM (inactive); in the test with HL-60, > 100 µM (inactive); in the test on SNB-19, > 100 µM (inactive).

The record behind these values is ChEMBL document CHEMBL1201862, “PubChem BioAssay data set” (2004).
